Test results reported in ChEMBL document CHEMBL1155104, “Gallic acid-based indanone derivatives as anticancer agents” (Bioorg Med Chem Lett, 2008).

Key:
[1] = Cytotoxicity against human KB403 cells after 24 hrs by MTT assay; assay type: functional, cell-based; details: KB403, 24 h
[2] = test system: WRL68; assay: Cytotoxicity against human WRL68 cells after 24 hrs by MTT assay; assay type: functional, cell-based; details: WRL68, 24 h
[3] = test system: Caco-2; assay: Cytotoxicity against human CaCO2 cells after 24 hrs by MTT assay; assay type: functional, cell-based; details: Caco-2, 24 h
[4] = test system: HepG2; assay: Cytotoxicity against human HEPG2 cells after 24 hrs by MTT assay; assay type: functional, cell-based; details: HepG2, 24 h
[5] = test system: MCF7; assay: Cytotoxicity against human MCF7 cells after 24 hrs by MTT assay; assay type: functional, cell-based; details: MCF7, 24 h
[6] = Toxicity in human erythrocytes assessed as osmotic hemolysis; assay type: cell-based; details: erythrocyte
[7] = Toxicity in human erythrocytes assessed as osmotic hemolysis at 258 uM; assay type: cell-based; details: erythrocyte

Row | SMILES | IC50 [1] [µM] | IC50 [2] [µM] | IC50 [3] [µM] | IC50 [4] [µM] | IC50 [5] [µM] | Activity [6] | Activity [7]
1 | COc1cccc(C2CC(=O)c3cc(OC)c(OC)c(OC)c32)c1 (centres undefined) | ≥ 250 | ≥ 250 | ≥ 250 | ≥ 250 | ≥ 250 |  | 
2 | COc1cc(OC)c(C2CC(=O)c3cc(OC)c(OC)c(OC)c32)c(OC)c1 (centres undefined) | 12.9 | 0.022 | 226 | 1.49 | 211 | Toxic | 
3 | COc1cc2c(cc1OC)C(c1cc(OC)c(OC)c(OC)c1)CC2=O (centres undefined) | 140 | 196 | 140 | 112 | ≥ 250 |  | 
4 | COc1cc(C2=C(O)C(=O)c3cc(OC)c(OC)c(OC)c32)cc(OC)c1OC | ≥ 250 | 124 | ≥ 250 | 74.6 | ≥ 250 |  | 
5 | COc1cc(C2C/C(=N\O)c3cc(OC)c(OC)c(OC)c32)cc(OC)c1OC (centres undefined) | 136 | 223 | 49.6 | 124 | ≥ 250 |  | 
6 | COc1cc2c(c(OC)c1OC)C(c1ccccc1)CC2=O (centres undefined) | 0.84 | ≥ 250 | ≥ 250 | 188 | ≥ 250 | Toxic | 
7 | COc1ccc(C2CC(=O)c3cc(OC)c(OC)c(OC)c32)c(OC)c1OC (centres undefined) | 1.54 | 0.023 | 206 | ≥ 250 | ≥ 250 | Toxic | 
8 | COc1cc(C2CC(=O)c3cc(OC)c(OC)c(OC)c32)cc(OC)c1OC (centres undefined) | 10.3 | 12.8 | ≥ 250 | 9 | 2.2 |  | Non-toxic
9 | COc1cc2c(c(OC)c1OC)-c1c(oc3c(OC)c(OC)c(OC)cc13)C2=O | ≥ 250 | 62.5 | 112 | ≥ 250 | 50 |  | 
10 | COc1cc(C2CC(O)c3cc(OC)c(OC)c(OC)c32)cc(OC)c1OC (centres undefined) | 192 | 192 | 6.4 | 102 | 244 |  | 
11 | COc1cc(C2CCc3cc(OC)c(OC)c(OC)c32)cc(OC)c1OC (centres undefined) | ≥ 250 | 154 | 115 | 89.7 | ≥ 250 |  | 
12 | CC(=O)O[C@H]1C(=O)[C@@]2(C)[C@H]([C@H](OC(=O)c3ccccc3)[C@]3(O)C[C@H](OC(=O)[C@H](O)[C@@H](NC(=O)c4ccccc4)c4ccccc4)C(C)=C1C3(C)C)[C@]1(OC(C)=O)CO[C@@H]1C[C@@H]2O [PACLITAXEL] | 0.001 | 0.004 | 0.008 | 0.009 | 0.006 |  | 
13 | COc1cc([C@@H]2c3cc4c(cc3[C@H](O)[C@H]3COC(=O)[C@H]23)OCO4)cc(OC)c1OC [PODOFILOX] | 20.5 | 4.8 | 0.002 | 4.8 | 8.5 |  | 
